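Each compound was tested at five concentrations against cells in 96-well plates for 48 hours. TGI: concentration producing complete growth inhibition.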
Assays:
Assay in all cases: NCI-60 cell line screen, 48 h
K-562 leukemia = test system: K-562 leukemia
LOX IMVI melanoma = test system: LOX IMVI melanoma
SK-OV-3 ovarian = test system: SK-OV-3 ovarian
U251 CNS = test system: U251 CNS
SK-MEL-28 melanoma = test system: SK-MEL-28 melanoma
MDA-MB-231 breast = test system: MDA-MB-231 breast
NCI-H460 lung = test system: NCI-H460 lung
MALME-3M melanoma = test system: MALME-3M melanoma
HL-60(TB) leukemia = test system: HL-60(TB) leukemia
NCI-H522 lung = test system: NCI-H522 lung
SK-MEL-2 melanoma = test system: SK-MEL-2 melanoma
MCF7 breast = test system: MCF7 breast
OVCAR-4 ovarian = test system: OVCAR-4 ovarian
OVCAR-3 ovarian = test system: OVCAR-3 ovarian
HOP-62 NSCLC = test system: HOP-62 NSCLC
M14 melanoma = test system: M14 melanoma
CAKI-1 renal = test system: CAKI-1 renal
HCT-15 colon = test system: HCT-15 colon
MDA-N = test system: MDA-N
OVCAR-8 ovarian = test system: OVCAR-8 ovarian
SN12C renal = test system: SN12C renal
MOLT-4 leukemia = test system: MOLT-4 leukemia
NCI/ADR-RES ovarian = test system: NCI/ADR-RES ovarian
RPMI-8226 leukemia = test system: RPMI-8226 leukemia
NCI-H226 lung = test system: NCI-H226 lung
T-47D breast = test system: T-47D breast
SNB-75 CNS = test system: SNB-75 CNS
SR leukemia = test system: SR leukemia
MDA-MB-435 = test system: MDA-MB-435
HS 578T breast = test system: HS 578T breast
SNB-19 CNS = test system: SNB-19 CNS
KM12 colon = test system: KM12 colon
ACHN renal = test system: ACHN renal
HCC-2998 colon = test system: HCC-2998 colon
OVCAR-5 ovarian = test system: OVCAR-5 ovarian
UACC-62 melanoma = test system: UACC-62 melanoma
UO-31 renal = test system: UO-31 renal
NCI-H23 lung = test system: NCI-H23 lung
CCRF-CEM leukemia = test system: CCRF-CEM leukemia
TK-10 renal = test system: TK-10 renal
PC-3 prostate = test system: PC-3 prostate
A549 NSCLC = test system: A549 NSCLC
HT29 colon = test system: HT29 colon
UACC-257 melanoma = test system: UACC-257 melanoma
COLO 205 colon = test system: COLO 205 colon
SF-268 CNS = test system: SF-268 CNS
IGROV1 ovarian = test system: IGROV1 ovarian
SF-539 CNS = test system: SF-539 CNS
SF-295 CNS = test system: SF-295 CNS
786-0 renal = test system: 786-0 renal
HOP-92 NSCLC = test system: HOP-92 NSCLC
RXF 393 renal = test system: RXF 393 renal
EKVX NSCLC = test system: EKVX NSCLC
SW-620 colon = test system: SW-620 colon
HCT-116 colon = test system: HCT-116 colon
SK-MEL-5 melanoma = test system: SK-MEL-5 melanoma
DU-145 prostate = test system: DU-145 prostate

Measured: TGI

CC(NCc1c(O)ccc2ccc(=O)oc12)C(=O)O (configuration not stated)
> 100 µM: K-562 leukemia | LOX IMVI melanoma | SK-OV-3 ovarian | U251 CNS | SK-MEL-28 melanoma | MDA-MB-231 breast | NCI-H460 lung | MALME-3M melanoma | HL-60(TB) leukemia | NCI-H522 lung | SK-MEL-2 melanoma | MCF7 breast | OVCAR-4 ovarian | OVCAR-3 ovarian | HOP-62 NSCLC | M14 melanoma | CAKI-1 renal | HCT-15 colon | MDA-N | OVCAR-8 ovarian | SN12C renal | MOLT-4 leukemia | NCI/ADR-RES ovarian | RPMI-8226 leukemia | NCI-H226 lung | T-47D breast | SNB-75 CNS | SR leukemia | MDA-MB-435 | HS 578T breast | SNB-19 CNS | KM12 colon | ACHN renal | HCC-2998 colon | OVCAR-5 ovarian | UACC-62 melanoma | UO-31 renal | NCI-H23 lung | CCRF-CEM leukemia | TK-10 renal | PC-3 prostate | A549 NSCLC | HT29 colon | UACC-257 melanoma | COLO 205 colon | SF-268 CNS | IGROV1 ovarian | SF-539 CNS | SF-295 CNS | 786-0 renal | HOP-92 NSCLC | RXF 393 renal | EKVX NSCLC | SW-620 colon | HCT-116 colon | SK-MEL-5 melanoma | DU-145 prostate
